# Assay results as given in patent publication US20090253669A1, “Substituted Sulfonamide Compounds” (GRUENENTHAL GmbH, priority 2008, published 2009).
# Key:
# [1] = biological target: T1, human B1R receptor (hB1R) (Homo sapiens, UniProt P46663); assay: FLIPR Ca2+ assay on hB1R-transfected CHO K1 cells, antagonistic action; assay type: cell-based; conditions: CHO-K1, 10 μM test substance; agonist Lys-Des-Arg9-bradykinin 0.5 nM; % of maximum achievable inhibition; read-out: hB1R [10 μM] % inhibition
# T1 construct: host or cells: CHO K1 cells
# T1 sequence (P46663 1-353): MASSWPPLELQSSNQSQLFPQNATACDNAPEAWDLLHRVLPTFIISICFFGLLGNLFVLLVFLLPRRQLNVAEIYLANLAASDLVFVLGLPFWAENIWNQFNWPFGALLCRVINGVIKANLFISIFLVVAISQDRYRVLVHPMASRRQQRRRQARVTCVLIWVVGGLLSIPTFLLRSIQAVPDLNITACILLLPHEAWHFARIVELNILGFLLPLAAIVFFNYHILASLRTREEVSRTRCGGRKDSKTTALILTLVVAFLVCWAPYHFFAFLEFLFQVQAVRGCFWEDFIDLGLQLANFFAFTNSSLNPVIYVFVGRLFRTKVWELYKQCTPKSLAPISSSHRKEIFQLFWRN
# [2] = biological target: T2, B1R receptor of the rat (rB1R) (Rattus norvegicus, UniProt P97583); assay: FLIPR Ca2+ assay on rB1R-transfected CHO K1 cells, antagonistic action; assay type: cell-based; conditions: CHO-K1, 10 μM test substance; agonist Des-Arg9-bradykinin 100 nM; % of maximum achievable inhibition; read-out: rB1R [10 μM] % inhibition
# T2 construct: host or cells: CHO K1 cells
# T2 sequence (P97583 1-337): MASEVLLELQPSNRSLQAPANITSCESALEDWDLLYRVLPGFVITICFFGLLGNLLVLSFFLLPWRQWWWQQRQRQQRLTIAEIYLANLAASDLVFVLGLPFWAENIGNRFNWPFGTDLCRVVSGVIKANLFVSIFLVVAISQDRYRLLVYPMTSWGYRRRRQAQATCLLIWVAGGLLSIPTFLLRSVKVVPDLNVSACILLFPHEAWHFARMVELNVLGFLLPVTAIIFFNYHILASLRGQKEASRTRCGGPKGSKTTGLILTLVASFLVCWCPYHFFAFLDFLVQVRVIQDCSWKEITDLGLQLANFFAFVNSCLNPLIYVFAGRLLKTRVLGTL
SMILES,inhibition at 10 µM [1] [%],inhibition at 10 µM [2] [%]
"COc1cc(C)c(S(=O)(=O)N2CCCCC2COCC(=O)N(C)CC2CCC(Cc3ccccc3)(N3CCN(C)CC3)CC2)c(C)c1 (stereo not shown) [Compound 143, N-((4-benzyl-4-(4-methylpiperazin-1-yl)cyclohexyl)methyl)-2-((1-(4-methoxy-2,6-dimethylphenylsulfonyl)piperidin-2-yl)methoxy)-N-methylacetamide]",103,111
"CN1CCN(C2(CCc3ccccc3)CCC(CN(C)C(=O)COCCN(C)S(=O)(=O)c3c(Cl)cc(Cl)cc3Cl)CC2)CC1 (stereo not shown) [Compound 195, N-methyl-N-((4-(4-methylpiperazin-1-yl)-4-phenethylcyclohexyl)methyl)-2-(2-(2,4,6-trichloro-N-methylphenylsulfonamido)ethoxy)acetamide]",100,28
"COc1cc(C)c(S(=O)(=O)N2CCCCC2COCC(=O)N(C)CCC2CCC(CCc3ccccc3)(N(C)C)CC2)c(C)c1 (stereo not shown) [Compound 73, N-(2-(4-(dimethylamino)-4-phenethylcyclohexyl)ethyl)-2-((1-(4-methoxy-2,6-dimethylphenylsulfonyl)piperidin-2-yl)methoxy)-N-methylacetamide]",104,99
"COc1cc(C)c(S(=O)(=O)N2CCCCC2COCC(=O)N(C)CCC2CCC(CCc3ccccc3)(N3CCCC3)CC2)c(C)c1 (stereo not shown) [Compound 46, 2-((1-(4-methoxy-2,6-dimethylphenylsulfonyl)piperidin-2-yl)methoxy)-N-methyl-N-(2-(4-phenethyl-4-(pyrrolidin-1-yl)cyclohexyl)ethyl)acetamide]",104,100
"CN1CCN(C2(Cc3ccccc3)CCC(CN(C)C(=O)COC3CCCN(S(=O)(=O)c4c(Cl)cc(Cl)cc4Cl)C3)CC2)CC1 (stereo not shown) [Compound 175, N-((4-benzyl-4-(4-methylpiperazin-1-yl)cyclohexyl)methyl)-N-methyl-2-(1-(2,4,6-trichlorophenylsulfonyl)piperidin-3-yloxy)acetamide]",97,77
"COc1cc(C)c(S(=O)(=O)N2CCCC[C@H]2COCC(=O)N(C)CCC2CCC(c3ccccc3)(N3CCC3)CC2)c(C)c1 (stereo partly drawn) [Compound 201, (S)-N-(2-(4-(azetidin-1-yl)-4-phenylcyclohexyl)ethyl)-2-((1-(4-methoxy-2,6-dimethylphenylsulfonyl)piperidin-2-yl)methoxy)-N-methylacetamide]",100,97
"COc1cc(C)c(S(=O)(=O)N2CCCCC2COCC(=O)N(C)CCC2CCC(Cc3ccccc3)(N(C)C)CC2)c(C)c1 (stereo not shown) [Compound 84, N-(2-(4-benzyl-4-(dimethylamino)cyclohexyl)ethyl)-2-((1-(4-methoxy-2,6-dimethylphenylsulfonyl)piperidin-2-yl)methoxy)-N-methylacetamide]",104,99
"CN(CC1CCC(Cc2ccccc2)(N2CCCC2)CC1)C(=O)CC1CCCCN1S(=O)(=O)c1cccc(C(F)(F)F)c1 (stereo not shown) [Compound 94, N-((4-benzyl-4-(pyrrolidin-1-yl)cyclohexyl)methyl)-N-methyl-2-(1-(3-(trifluoromethyl)phenylsulfonyl)piperidin-2-yl)acetamide]",64,93
"Cc1cc(S(=O)(=O)N2CCCCC2CCC(=O)N2CCC(c3ccccc3)(N(C)C)CC2)c(C)cc1Cl (stereo not shown) [Compound 123, 3-(1-(4-chloro-2,5-dimethylphenylsulfonyl)piperidin-2-yl)-1-(4-(dimethylamino)-4-phenylpiperidin-1-yl)propan-1-one]",103,60
"Cc1cc(S(=O)(=O)N2CCCCC2CCC(=O)N(C)CCCC2CCC(c3ccccc3)(N3CCCC3)CC2)c(C)cc1Cl (stereo not shown) [Compound 136, 3-(1-(4-chloro-2,5-dimethylphenylsulfonyl)piperidin-2-yl)-N-methyl-N-(3-(4-phenyl-4-(pyrrolidin-1-yl)cyclohexyl)propyl)propanamide]",99,32
"COc1cc(C)c(S(=O)(=O)N2CCCC2COCC(=O)NCC2CCC(Cc3ccccc3)(N3CCOCC3)CC2)c(C)c1 (stereo not shown) [Compound 169, N-((4-benzyl-4-morpholinocyclohexyl)methyl)-2-((1-(4-methoxy-2,6-dimethylphenylsulfonyl)pyrrolidin-2-yl)methoxy)acetamide]",41,86
"CN(CCCC1CCC(CCc2ccccc2)(N2CCCC2)CC1)C(=O)CC1CCCCN1S(=O)(=O)c1cccc(C(F)(F)F)c1 (stereo not shown) [Compound 134, N-methyl-N-(3-(4-phenethyl-4-(pyrrolidin-1-yl)cyclohexyl)propyl)-2-(1-(3-(trifluoromethyl)phenylsulfonyl)piperidin-2-yl)acetamide]",102,38
"COc1cc(C)c(S(=O)(=O)N2CCCC2COCC(=O)NC2CCC(Cc3ccccc3)(N3CCOCC3)CC2)c(C)c1 (stereo not shown) [Compound 159, N-(4-benzyl-4-morpholinocyclohexyl)-2-((1-(4-methoxy-2,6-dimethylphenylsulfonyl)pyrrolidin-2-yl)methoxy)acetamide]",45,98
"CN(C)C1(c2ccccc2)CCC(NC(=O)COCCN(C)S(=O)(=O)c2c(Cl)cc(Cl)cc2Cl)CC1 (stereo not shown) [Compound 199, N-(4-(dimethylamino)-4-phenylcyclohexyl)-2-(2-(2,4,6-trichloro-N-methylphenylsulfonamido)ethoxy)acetamide]",76,36
"Cc1cc(S(=O)(=O)N2CCCCC2CCC(=O)N(C)CC2CCC(CCc3ccccc3)(N3CCCC3)CC2)c(C)cc1Cl (stereo not shown) [Compound 141, 3-(1-(4-chloro-2,5-dimethylphenylsulfonyl)piperidin-2-yl)-N-methyl-N-((4-phenethyl-4-(pyrrolidin-1-yl)cyclohexyl)methyl)propanamide]",104,20
"COc1cc(C)c(S(=O)(=O)N(C)CCOCC(=O)N2CCC(c3ccc(F)cc3)(N3CCN(C)CC3)CC2)c(C)c1 [Compound 42, N-(2-(2-(4-(4-fluorophenyl)-4-(4-methylpiperazin-1-yl)piperidin-1-yl)-2-oxoethoxy)ethyl)-4-methoxy-N,2,6-trimethylbenzenesulfonamide]",105,101
"CN(C)C1(c2ccccc2)CCC(NC(=O)CC2c3ccccc3CCN2S(=O)(=O)c2ccc(Cl)c(Cl)c2)CC1 (stereo not shown) [Compound 26, 2-(2-(3,4-dichlorophenylsulfonyl)-1,2,3,4-tetrahydroisoquinolin-1-yl)-N-(4-(dimethylamino)-4-phenylcyclohexyl)acetamide]",84,56
"COc1cc(C)c(S(=O)(=O)N2CCCC2COCC(=O)NC2CCC(c3ccccc3)(N3CCCC3)CC2)c(C)c1 (stereo not shown) [Compound 145, 2-((1-(4-methoxy-2,6-dimethylphenylsulfonyl)pyrrolidin-2-yl)methoxy)-N-(4-phenyl-4-(pyrrolidin-1-yl)cyclohexyl)acetamide]",92,110
"COc1cc(C)c(S(=O)(=O)N2c3ccccc3CCC2COCC(=O)N2CCC(c3cccc(F)c3)(N3CCN(C)CC3)CC2)c(C)c1 (stereo not shown) [Compound 220, 1-(4-(3-Fluorophenyl)-4-(4-methylpiperazin-1-yl)piperidin-1-yl)-2-((1-(4-methoxy-2,6-dimethylphenylsulfonyl)-1,2,3,4-tetrahydroquinolin-2-yl)methoxy)ethanone]",,97
"COc1cc(C)c(S(=O)(=O)N(C)CCOCC(=O)N2CCC(c3cccc(F)c3)(N3CCN(C)CC3)CC2)c(C)c1C [Compound 224, N-(2-(2-(4-(3-Fluorophenyl)-4-(4-methylpiperazin-1-yl)piperidin-1-yl)-2-oxoethoxy)ethyl)-4-methoxy-N,2,3,6-tetramethylbenzenesulfonamide]",,100
"COc1cc(C)c(S(=O)(=O)N(CCOCC(=O)N2CCC(c3cccc(F)c3)(N3CCN(C)CC3)CC2)c2ccccc2)c(C)c1 [Compound 219, N-(2-(2-(4-(3-Fluorophenyl)-4-(4-methylpiperazin-1-yl)piperidin-1-yl)-2-oxoethoxy)ethyl)-4-methoxy-2,6-dimethyl-N-phenylbenzenesulfonamide]",,61
"COc1cc(C)c(S(=O)(=O)N(CCOCC(=O)N2CCC(c3cccc(F)c3)(N3CCN(C)CC3)CC2)Cc2ccccc2)c(C)c1 [Compound 218, N-Benzyl-N-(2-(2-(4-(3-fluorophenyl)-4-(4-methylpiperazin-1-yl)piperidin-1-yl)-2-oxoethoxy)ethyl)-4-methoxy-2,6-dimethylbenzenesulfonamide]",,101
